33 substances from US20180179524A1, “COMPOSITIONS AND METHODS FOR INHIBITING CELL PROLIFERATION” (President and Fellows of Harvard College, priority 2015, published 2018) can be followed below.

For the data set, the system named is luciferase-based reporter constructs in S2R+ cells. The experiment in a line: Luciferase-based mutation reporter assay (sgRNA mutation efficiency). Format: cell-based, Drosophila. As to conditions: sgRNAs with no mismatches targeting luciferase-based reporter in S2R+ cells; mutation rate = 1/Firefly luciferase normalized to Renilla. As to the method: The luciferase reporter vector was constructed by PCR amplifying the metallothionein promoter from pMK33 and luciferase gene from pGL3 (Table 1) and combining these with annealed oligos containing a gRNA target site (Table 1 and Table 2) and a custom made cloning vector using Golden Gate assembly.
Luciferase assays were performed by transfecting S2R+ cells with the relevant pl018 plasmid, luciferase reporter and pRL-TK (Promega) (to allow normalization of transfection efficiencies between samples) in 96 well plates using Effectene Transfection Reagent (Qiagen) according to the manufacturer's recommendations. Twenty-four hours after transfection, CuSO4 was added to the cell media at a final concentration of 140 μM and cells were incubated for a further 16 hours.
Firefly and Renilla luciferase readings were taken using the Dual-Glo Luciferase Assay System (Promega) according to manufacturer's instructions and a SpectraMax Paradigm Multi-Mode Microplate Detection Platform (Molecular Devices).
Because the rate of mutations varies widely between different sgRNAs (25-27), whether efficiency could be predicted based on the sgRNA sequence was tested. 75 additional sgRNAs were generated, each targeting luciferase-based reporter constructs with no mismatches and tested mutation efficiency for each. Using this panel of sgRNAs and associated efficiencies, the presence or absence of a correlation between GC content and mutation rate was examined. […] Next, whether a more general sequence-based approach was tested for its ability to improve efficiency prediction. The nucleotide content of all 75 sgRNAs was examined, considering each position separately and generated a probability matrix linking nucleotide content with mutation rate (FIG. 1, panel B). This was then used to generate predicted efficiency scores based on sgRNA sequence. […] Note that sgRNAs targeting close to the 3′ end of genes or with apparent viability effects were not included in this analysis. Finally, predicted scores were generated for all sgRNA target sites in the Drosophila genome and annotated.
“AGTCCTCACCGTGGGGCACC: sgRNA targeting a luciferase-based reporter construct, no mismatches (chemistry not given here)” yielded a Mean efficiency of 0.09069.
Substance “GCCCAGGGGGAATCGGCCGC: sgRNA targeting a luciferase-based reporter construct, no mismatches (chemistry not given here)” returned a Mean efficiency of 0.4072.
The value for “TCCTATTACTGCGTGCAGCC: sgRNA targeting a luciferase-based reporter construct, no mismatches (chemistry not given here)” was 1.342; that for “ATATCGGAGTCGGCCCAACC: sgRNA targeting a luciferase-based reporter construct, no mismatches (chemistry not given here)” was 0.4113; that for “CTTCCGACCCTTCGTTAGCC: sgRNA targeting a luciferase-based reporter construct, no mismatches (chemistry not given here)” was 0.1815.
The value for “TTCTGAGTACATGTGATACC: sgRNA targeting a luciferase-based reporter construct, no mismatches (chemistry not given here)” was 0.2974; that for “ATCTGGTCAGGACGCAAAGC: sgRNA targeting a luciferase-based reporter construct, no mismatches (chemistry not given here)” was 0.1406.
On to “CCGCGCCGAGGACTACCGCC: sgRNA targeting a luciferase-based reporter construct, no mismatches (chemistry not given here)”, for which the Mean efficiency worked out at 0.4568.
Take “CCACCGCGATATATGGGCGA: sgRNA targeting a luciferase-based reporter construct, no mismatches (chemistry not given here)”: the Mean efficiency worked out at 0.5711.
“GTGCTGCGCCAACCCAAATA: sgRNA targeting a luciferase-based reporter construct, no mismatches (chemistry not given here)”: the Mean efficiency worked out at 0.0849.
“TTGACATCAGCGCGCGAGGC: sgRNA targeting a luciferase-based reporter construct, no mismatches (chemistry not given here)” came in with a Mean efficiency of 0.3893.
“TGTTCCCTACACGGCGCCAG: sgRNA targeting a luciferase-based reporter construct, no mismatches (chemistry not given here)” showed a Mean efficiency of 0.2531.
As for “CCGTCGAAGAACCGCGCAAT: sgRNA targeting a luciferase-based reporter construct, no mismatches (chemistry not given here)”, the Mean efficiency turned out to be 1.029.
The value for “GGTTACCAACTCAGGACCCG: sgRNA targeting a luciferase-based reporter construct, no mismatches (chemistry not given here)” was 0.4858; that for “CGACGTTCCTGGCTCAATTG: sgRNA targeting a luciferase-based reporter construct, no mismatches (chemistry not given here)” was 0.9067; that for “TTGTTTGCTGGTACAAACGC: sgRNA targeting a luciferase-based reporter construct, no mismatches (chemistry not given here)” was 0.2993.
As for “TTGGCCGCGACCTGTTTATC: sgRNA targeting a luciferase-based reporter construct, no mismatches (chemistry not given here)”, the figure is 0.9282; as for “GTCGGAACCTGAGTCGTTTT: sgRNA targeting a luciferase-based reporter construct, no mismatches (chemistry not given here)”, 0.5891.
In the case of “AACGACATCACGGTCCATGC: sgRNA targeting a luciferase-based reporter construct, no mismatches (chemistry not given here)”, the Mean efficiency stood at 0.2424.
As for “CTGGGCCGGCGTGTCCGTTC: sgRNA targeting a luciferase-based reporter construct, no mismatches (chemistry not given here)”, the figure is 0.4328; as for “GCGAGTTATCTATCCCCAGG: sgRNA targeting a luciferase-based reporter construct, no mismatches (chemistry not given here)”, 0.4749.
The value for “GAACTCCGACTAGATTATAT: sgRNA targeting a luciferase-based reporter construct, no mismatches (chemistry not given here)” was 0.4012; that for “ACGCGCACGGGTCTCACGCC: sgRNA targeting a luciferase-based reporter construct, no mismatches (chemistry not given here)” was 0.3288.
As for “AAAGAGCTGCGGGCCGGGCG: sgRNA targeting a luciferase-based reporter construct, no mismatches (chemistry not given here)”, the figure is 0.06954; as for “CTCACAGACGGCGCCCGGCG: sgRNA targeting a luciferase-based reporter construct, no mismatches (chemistry not given here)”, 0.4741; as for “GTGTCCAGGCTCGTCATGCC: sgRNA targeting a luciferase-based reporter construct, no mismatches (chemistry not given here)”, 0.8603.
“ATAGTTCCCTCCATGCCCTT: sgRNA targeting a luciferase-based reporter construct, no mismatches (chemistry not given here)” showed a Mean efficiency of 0.07786.
As for “ACCAGCATATGCCGGCCTGC: sgRNA targeting a luciferase-based reporter construct, no mismatches (chemistry not given here)”, the figure is 0.767.
The substance “CAGCCTCTCCCTGCGGATGC: sgRNA targeting a luciferase-based reporter construct, no mismatches (chemistry not given here)” showed a Mean efficiency of 0.2509.
As for “AGGGAGTCCGCATAGGCGGC: sgRNA targeting a luciferase-based reporter construct, no mismatches (chemistry not given here)”, the figure is 0.1819.
As for “CAGGCATTGTGACGACGCGC: sgRNA targeting a luciferase-based reporter construct, no mismatches (chemistry not given here)”, the Mean efficiency was 0.1744.
In turn, “ATCTGACCTCCCGGCTAATT: sgRNA targeting a luciferase-based reporter construct, no mismatches (chemistry not given here)” had a Mean efficiency of 0.05737.
On to “CGTCGTTCTCGCCACCGCGC: sgRNA targeting a luciferase-based reporter construct, no mismatches (chemistry not given here)”, for which the Mean efficiency turned out to be 0.1461.
